# Assay results as given in patent publication US7727753B2, “Plant dihydroorotase” (BASF Aktiengesellschaft, priority 1999, dated 2010).
# Test system: potato dihydroorotase
# Assay: Measurement of the dihydroorotase activity (dihydroorotate-dehydrogenase-coupled photometric assay at 340 nm, or colorimetric assay)
# Type: biochemical, Solanum tuberosum
# Settings: activity measured in the assay systems described; recombinant enzyme expressed in E. coli
# Source text: The enzymatic detection developed to date for measuring the dihydroorotase activity by the method of Mazus and Buchowicz, (Acta Biochimica Polonica (1968), 15(4), 317-325) is based on detecting the orotate formed at 280 nm in a dihydroorotate-dehydrogenase-coupled reaction mixture. Prerequisite for doing so is a high activity of the auxiliary enzyme, viz. dihydroorotate dehydrogenase. […] In order to be able to carry out a mass screening, the specific dihydroorotate dehydrogenase activity must be at least ten times higher than is the case in the commercial preparation. […] The enzyme activity was determined in a photometric assay by measurement in a photometer (Uvikon 933, Kontron) at 340 nm. […] In each case […] of the resulting enzyme fraction was made up with buffer to […] and measured against a reference cell containing […] reaction buffer and 100 ml of a protein homogenate of untransformed E. coli culture. […] Identical quantities of total protein were employed for measuring the untransformed or transformed E. coli extracts. […] Alternatively, the dihydroorotase may also be measured in a less sensitive colorimetric assay by the method of Prescott and Jones (Anal. Biochem. (1969) 32, 408-419) without being coupled to dihydroorotate dehydrogenase. […]
row,Structure (SMILES),potato dihydroorotase activity
1,"O=C1NC(C(=O)O)=CC(C(=O)O)N1 (centres unmarked) [2-oxo-1,2,3,6-tetrahydropyrimidine-4,6-dicarboxylate]",can be reduced
2,O=C1NC(=S)C[C@@H](C(=O)O)N1 [6-L-thiodihydroorotate],can be reduced
